Reference: patent publication US12173018B2, “Penicillin-binding protein inhibitors” (priority 2018, dated 2024)
pEC50: −log10 of the molar value. In brackets after ≈: the same amount, converted by molar mass. Read-outs that look alike come from different tables or passages of the source.

Assays:
E. coli PBP3 = E. coli PBP3 (Escherichia coli (strain K12), UniProt P0AD68); assay: E. coli PBP3 Bocillin-FL fluorescence polarization competition binding assay
Method in brief: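 This was a fluorescence polarization competition with fluorescent penicillin Bocillin-FL (0.1 μM final), read at 490/520 nm for 60 min immediately after its addition. The buffer was Hepes pH 8.0 with 300 mM NaCl and 5% glycerol, containing 1.5 μM PBP and test inhibitor up to 1000 μM. Potency is expressed as EC50 for reducing probe binding.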

N. gonorrhoeae FA1090 = assay: Liquid broth MIC, N. gonorrhoeae FA1090; type: cell-based; conditions: Neisseria gonorrhoeae
Method in brief: (§1)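 MIC taken by eye as the lowest well lacking growth after 40-42 h at 36° C under 5% CO2. Compounds were 2-fold serially diluted; the starting inoculum of 5×10^5 CFU/mL came from direct colony suspensions grown on Kellogg's-supplemented GC agar.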

N. gonorrhoeae WHO F = assay: Liquid broth MIC, N. gonorrhoeae WHO F; type: cell-based; conditions: Neisseria gonorrhoeae, read-out: Minimum Inhibitory Concentration, N. gonorrhoeae WHO F
Method in brief: as §1

K. pneumoniae UMM = assay: microbe, parasite or virus in culture; type: cell-based; conditions: Klebsiella pneumoniae; K. pneumoniae UMM producing SHV-5 and KPC-2; read-out: MIC K. pneumoniae UMM
Method in brief: (§2)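 CLSI broth microdilution in cation-supplemented Mueller-Hinton broth; 2-fold compound dilutions inoculated at 5×10^5 CFU/mL from a 3-5 h log-phase culture. Plates incubated 16-20 hours at 37° C; MIC read visually as lowest concentration with no growth.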

K. pneumoniae SI-117 = assay: microbe, parasite or virus in culture; type: cell-based; conditions: Klebsiella pneumoniae, SI117, read-out: MIC K. pneumoniae SI-117
Method in brief: as §2

N. gonorrhoeae FA19 = assay: Liquid broth MIC, N. gonorrhoeae FA19; type: cell-based; conditions: Neisseria gonorrhoeae
Method in brief: as §1

E. coli ATCC 25922 = assay: Broth microdilution MIC, E. coli ATCC 25922; type: cell-based; conditions: Escherichia coli
Method in brief: as §2

[1] = N. gonorrhoeae FA1090, liquid broth, read-out: Minimum Inhibitory Concentration, N. gonorrhoeae FA1090
[2] = N. gonorrhoeae WHO F, liquid broth
[3] = N. gonorrhoeae FA19, liquid broth, read-out: Minimum Inhibitory Concentration, N. gonorrhoeae FA19
[4] = ATCC25922, E. coli ATCC 25922, broth microdilution, read-out: MIC E. coli 25922
[5] = fluorescence polarization competition binding with Bocillin-FL, read-out: E. coli K12 PBP3 Potency

Sequence of E. coli PBP3 (P0AD68 whole entry): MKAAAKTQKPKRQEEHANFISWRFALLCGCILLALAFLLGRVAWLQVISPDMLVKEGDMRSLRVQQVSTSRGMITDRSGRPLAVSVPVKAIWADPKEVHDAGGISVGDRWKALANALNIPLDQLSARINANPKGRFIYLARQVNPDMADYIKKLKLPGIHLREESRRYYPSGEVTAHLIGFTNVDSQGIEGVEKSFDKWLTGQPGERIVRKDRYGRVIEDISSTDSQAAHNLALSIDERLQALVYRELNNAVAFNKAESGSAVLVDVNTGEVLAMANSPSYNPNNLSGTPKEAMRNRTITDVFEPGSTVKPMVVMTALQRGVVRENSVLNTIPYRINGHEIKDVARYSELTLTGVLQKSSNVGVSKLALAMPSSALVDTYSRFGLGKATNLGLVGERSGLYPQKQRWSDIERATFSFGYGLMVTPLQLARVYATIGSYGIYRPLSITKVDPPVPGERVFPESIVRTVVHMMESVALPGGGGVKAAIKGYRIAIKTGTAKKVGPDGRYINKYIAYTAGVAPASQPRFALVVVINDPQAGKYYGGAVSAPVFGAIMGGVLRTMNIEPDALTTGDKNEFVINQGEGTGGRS

| Structure (SMILES) | pEC50 (E. coli PBP3) | MIC (N. gonorrhoeae FA1090; [1]) [µg/mL] | MIC (N. gonorrhoeae WHO F; [2]) [µg/mL] | MIC (K. pneumoniae UMM) [µg/mL] | MIC (K. pneumoniae SI-117) [µg/mL] | MIC (N. gonorrhoeae FA19; [3]) [µg/mL] | MIC (E. coli ATCC 25922; [4]) [µg/mL] | pEC50 (E. coli PBP3; [5]) | MIC (N. gonorrhoeae FA1090; FA1090, read-out: Minimum Inhibitory Concentration, N. gonorrhoeae FA1090) [µg/mL] | MIC (N. gonorrhoeae WHO F) [µg/mL] | MIC (N. gonorrhoeae FA19; FA19, read-out: Minimum Inhibitory Concentration, N. gonorrhoeae FA19) [µg/mL] | MIC (E. coli ATCC 25922; ATCC25922, read-out: MIC E. coli 25922) [µg/mL] |
| --- | --- | --- | --- | --- | --- | --- | --- | --- | --- | --- | --- | --- |
| O=C(O)c1cccc2c1OB(O)[C@@H](NC(=O)C(NC(=O)N1CCN(CCF)C(=O)C1=O)c1ccc(S(=O)(=O)NCCO)cc1)C2 (stereo partly drawn) [Example 213, (3R)-3-(2-(4-(2-fluoroethyl)-2,3-dioxopiperazine-1-carboxamido)-2-(4-(N-(2-hydroxyethyl)sulfamoyl)phenyl)acetamido)-2-hydroxy-3,4-dihydro-2H-benzo[e][1,2]oxaborinine-8-carboxylic acid] | 3.30 to 4.52 | 0.25 to 0.5 (≈ 0.385 to 0.77 µM) | 0.25 to 0.5 (≈ 0.385 to 0.77 µM) | 32 to 64 | > 128 | 16 to 32 (≈ 24.6 to 49.3 µM) | > 128 | – | – | – | – | – |
| CCN1CCN(C(=O)NC(C(=O)N[C@H]2Cc3ccc(Cl)c(C(=O)O)c3OB2O)c2ncc(O)cc2F)C(=O)C1=O (stereo partly drawn) [Example 216, (3R)-7-chloro-3-(2-(4-ethyl-2,3-dioxopiperazine-1-carboxamido)-2-(3-fluoro-5-hydroxypyridin-2-yl)acetamido)-2-hydroxy-3,4-dihydro-2H-benzo[e][1,2]oxaborinine-8-carboxylic acid] | – | 0.25 to 0.5 (≈ 0.433 to 0.865 µM) | < 0.125 | 32 to 64 | 32 to 64 | 1 to 2 (≈ 1.73 to 3.46 µM) | 32 to 64 | > 4.52 | – | – | – | – |
| CCN1CCN(C(=O)NC(C(=O)N[C@H]2Cc3ccc(Cl)c(C(=O)O)c3OB2O)c2ccc(O)c(O)c2Cl)C(=O)C1=O (stereo partly drawn) [Example 217, (3R)-7-chloro-3-(2-(2-chloro-3,4-dihydroxyphenyl)-2-(4-ethyl-2,3-dioxopiperazine-1-carboxamido)acetamido)-2-hydroxy-3,4-dihydro-2H-benzo[e][1,2]oxaborinine-8-carboxylic acid] | 3.30 to 4.52 | 1 to 2 (≈ 1.64 to 3.28 µM) | 0.25 to 0.5 (≈ 0.41 to 0.821 µM) | 2 to 4 | 2 to 4 | 4 to 8 (≈ 6.57 to 13.1 µM) | 8 to 16 | – | – | – | – | – |
| CC[C@H]1CN(CC)C(=O)C(=O)N1C(=O)NC(C(=O)N[C@H]1Cc2cccc(C(=O)O)c2OB1O)c1ncc(O)cc1F (stereo partly drawn) [Example 218, (3R)-3-(2-((S)-4,6-diethyl-2,3-dioxopiperazine-1-carboxamido)-2-(3-fluoro-5-hydroxypyridin-2-yl)acetamido)-2-hydroxy-3,4-dihydro-2H-benzo[e][1,2]oxaborinine-8-carboxylic acid] | – | 0.25 to 0.5 (≈ 0.438 to 0.875 µM) | 0.25 to 0.5 (≈ 0.438 to 0.875 µM) | 32 to 64 | > 128 | 16 to 32 (≈ 28 to 56 µM) | 32 to 64 | > 4.52 | – | – | – | – |
| C[C@H]1CN(CCO)C(=O)C(=O)N1C(=O)NC(C(=O)N[C@H]1Cc2cccc(C(=O)O)c2OB1O)c1ccc(O)c(O)c1Cl (stereo partly drawn) [Example 224, (3R)-3-(2-(2-chloro-3,4-dihydroxyphenyl)-2-((S)-4-(2-hydroxyethyl)-6-methyl-2,3-dioxopiperazine-1-carboxamido)acetamido)-2-hydroxy-3,4-dihydro-2H-benzo[e][1,2]oxaborinine-8-carboxylic acid] | 3.30 to 4.52 | 1 to 2 (≈ 1.65 to 3.31 µM) | 4 to 8 (≈ 6.61 to 13.2 µM) | 2 to 4 | 2 to 4 | > 64 | 2 to 4 | – | – | – | – | – |
| NCCN1CCN(C(=O)N[C@@H](C(=O)N[C@H]2Cc3cccc(C(=O)O)c3OB2O)c2ncc(O)cc2F)C(=O)C1=O [Example 225, (R)-3-((R)-2-(4-(2-aminoethyl)-2,3-dioxopiperazine-1-carboxamido)-2-(3-fluoro-5-hydroxypyridin-2-yl)acetamido)-2-hydroxy-3,4-dihydro-2H-benzo[e][1,2]oxaborinine-8-carboxylic acid] | – | 0.25 to 0.5 (≈ 0.448 to 0.896 µM) | 0.25 to 0.5 (≈ 0.448 to 0.896 µM) | 8 to 16 | 8 to 16 | 4 to 8 (≈ 7.16 to 14.3 µM) | 8 to 16 | > 4.52 | – | – | – | – |
| NCCN1CCN(C(=O)N[C@@H](C(=O)N[C@H]2Cc3ccc(F)c(C(=O)O)c3OB2O)c2ccc(O)c(O)c2Cl)C(=O)C1=O [Example 227, (R)-3-((R)-2-(4-(2-aminoethyl)-2,3-dioxopiperazine-1-carboxamido)-2-(2-chloro-3,4-dihydroxyphenyl)acetamido)-7-fluoro-2-hydroxy-3,4-dihydro-2H-benzo[e][1,2]oxaborinine-8-carboxylic acid] | 3.30 to 4.52 | 1 to 2 (≈ 1.65 to 3.29 µM) | 1 to 2 (≈ 1.65 to 3.29 µM) | 0.5 to 1 | 0.5 to 1 | 4 to 8 (≈ 6.58 to 13.2 µM) | 0.5 to 1 | – | – | – | – | – |
| CC(=O)NCCN1CCN(C(=O)NC(C(=O)N[C@H]2Cc3cccc(C(=O)O)c3OB2O)c2ccc(O)c(O)c2Cl)C(=O)C1=O (stereo partly drawn) [Example 228, (3R)-3-(2-(4-(2-acetamidoethyl)-2,3-dioxopiperazine-1-carboxamido)-2-(2-chloro-3,4-dihydroxyphenyl)acetamido)-2-hydroxy-3,4-dihydro-2H-benzo[e][1,2]oxaborinine-8-carboxylic acid] | 3.30 to 4.52 | 1 to 2 (≈ 1.58 to 3.17 µM) | 4 to 8 (≈ 6.33 to 12.7 µM) | 0.5 to 1 | 2 to 4 | > 64 | 8 to 16 | – | – | – | – | – |
| CS(=O)(=O)NCCN1CCN(C(=O)NC(C(=O)N[C@H]2Cc3cccc(C(=O)O)c3OB2O)c2ccc(O)c(O)c2Cl)C(=O)C1=O (stereo partly drawn) [Example 229, (3R)-3-(2-(2-chloro-3,4-dihydroxyphenyl)-2-(4-(2-(methylsulfonamido)ethyl)-2,3-dioxopiperazine-1-carboxamido)acetamido)-2-hydroxy-3,4-dihydro-2H-benzo[e][1,2]oxaborinine-8-carboxylic acid] | – | 4 to 8 (≈ 5.99 to 12 µM) | 4 to 8 (≈ 5.99 to 12 µM) | 8 to 16 | 8 to 16 | > 64 | 8 to 16 | > 4.52 | – | – | – | – |
| NCCN1CCN(C(=O)N[C@@H](C(=O)N[C@H]2Cc3ccc(F)c(C(=O)O)c3OB2O)c2ncc(O)cc2F)C(=O)C1=O [Example 230, (R)-3-((R)-2-(4-(2-aminoethyl)-2,3-dioxopiperazine-1-carboxamido)-2-(3-fluoro-5-hydroxypyridin-2-yl)acetamido)-7-fluoro-2-hydroxy-3,4-dihydro-2H-benzo[e][1,2]oxaborinine-8-carboxylic acid] | – | 1 to 2 (≈ 1.74 to 3.47 µM) | 0.25 to 0.5 (≈ 0.434 to 0.868 µM) | 8 to 16 | 8 to 16 | 4 to 8 (≈ 6.94 to 13.9 µM) | 8 to 16 | > 4.52 | – | – | – | – |
| NCCCN1CCN(C(=O)NC(C(=O)N[C@H]2Cc3cccc(C(=O)O)c3OB2O)c2ccc(O)c(O)c2Cl)C(=O)C1=O (stereo partly drawn) [Example 233, (3R)-3-(2-(4-(3-aminopropyl)-2,3-dioxopiperazine-1-carboxamido)-2-(2-chloro-3,4-dihydroxyphenyl)acetamido)-2-hydroxy-3,4-dihydro-2H-benzo[e][1,2]oxaborinine-8-carboxylic acid] | 3.30 to 4.52 | 1 to 2 (≈ 1.66 to 3.31 µM) | 4 to 8 (≈ 6.62 to 13.2 µM) | 2 to 4 | 2 to 4 | 16 to 32 (≈ 26.5 to 53 µM) | 8 to 16 | – | – | – | – | – |
| CCN1C[C@H](CO)N(C(=O)NC(C(=O)N[C@H]2Cc3cccc(C(=O)O)c3OB2O)c2ncc(O)cc2F)C(=O)C1=O (stereo partly drawn) [Example 234, (3R)-3-(2-((R)-4-ethyl-6-(hydroxymethyl)-2,3-dioxopiperazine-1-carboxamido)-2-(3-fluoro-5-hydroxypyridin-2-yl)acetamido)-2-hydroxy-3,4-dihydro-2H-benzo[e][1,2]oxaborinine-8-carboxylic acid] | – | – | – | 32 to 64 | > 128 | – | – | > 4.52 | 0.25 to 0.5 (≈ 0.436 to 0.872 µM) | 0.25 to 0.5 (≈ 0.436 to 0.872 µM) | 16 to 32 (≈ 27.9 to 55.8 µM) | > 128 |
| CCNC(=O)NCCN1CCN(C(=O)NC(C(=O)N[C@H]2Cc3cccc(C(=O)O)c3OB2O)c2ccc(O)c(O)c2Cl)C(=O)C1=O (stereo partly drawn) [Example 235, (3R)-3-(2-(2-chloro-3,4-dihydroxyphenyl)-2-(4-(2-(3-ethylureido)ethyl)-2,3-dioxopiperazine-1-carboxamido)acetamido)-2-hydroxy-3,4-dihydro-2H-benzo[e][1,2]oxaborinine-8-carboxylic acid] | – | 1 to 2 (≈ 1.51 to 3.03 µM) | 1 to 2 (≈ 1.51 to 3.03 µM) | 2 to 4 | 8 to 16 | > 64 | 32 to 64 | > 4.52 | – | – | – | – |
| NCCCN1CCN(C(=O)N[C@@H](C(=O)N[C@H]2Cc3ccc(F)c(C(=O)O)c3OB2O)c2ccc(O)c(O)c2Cl)C(=O)C1=O [Example 236, (R)-3-((R)-2-(4-(3-aminopropyl)-2,3-dioxopiperazine-1-carboxamido)-2-(2-chloro-3,4-dihydroxyphenyl)acetamido)-7-fluoro-2-hydroxy-3,4-dihydro-2H-benzo[e][1,2]oxaborinine-8-carboxylic acid] | 3.30 to 4.52 | 1 to 2 (≈ 1.61 to 3.22 µM) | 1 to 2 (≈ 1.61 to 3.22 µM) | 0.5 to 1 | 0.5 to 1 | 4 to 8 (≈ 6.43 to 12.9 µM) | 0.5 to 1 | – | – | – | – | – |
